Test results taken from BindingDB's records for doi:10.1016/j.bmcl.2009.04.124 (H. Lee Moffitt Cancer Center, 2009).

Target: E3 ubiquitin-protein ligase Mdm2 (Homo sapiens, UniProt Q00987)
Test: AlphaScreen Assay
Conditions: pH 7.4; 24 °C
Procedure: When two proteins interact (one of which is conjugated to the donor bead and the other to the acceptor bead) the beads are brought into close proximity. Excitation of a photosensitizer in the donor bead results in the production of singlet oxygen that diffuses to and reacts with a chemiluminescent molecule in the acceptor bead. […] Nickel acceptor beads and glutathione donor beads were added. Following 1 h incubation at 24 deg C, the mixture was analyzed in a fluorometer at an excitation wavelength of 680 nm. Nutlin-3a obtained from Cayman Chemical was used as a control. The IC50 values reported are from runs repeated four times.

E3 ubiquitin-protein ligase Mdm2, sequence (Q00987 whole entry): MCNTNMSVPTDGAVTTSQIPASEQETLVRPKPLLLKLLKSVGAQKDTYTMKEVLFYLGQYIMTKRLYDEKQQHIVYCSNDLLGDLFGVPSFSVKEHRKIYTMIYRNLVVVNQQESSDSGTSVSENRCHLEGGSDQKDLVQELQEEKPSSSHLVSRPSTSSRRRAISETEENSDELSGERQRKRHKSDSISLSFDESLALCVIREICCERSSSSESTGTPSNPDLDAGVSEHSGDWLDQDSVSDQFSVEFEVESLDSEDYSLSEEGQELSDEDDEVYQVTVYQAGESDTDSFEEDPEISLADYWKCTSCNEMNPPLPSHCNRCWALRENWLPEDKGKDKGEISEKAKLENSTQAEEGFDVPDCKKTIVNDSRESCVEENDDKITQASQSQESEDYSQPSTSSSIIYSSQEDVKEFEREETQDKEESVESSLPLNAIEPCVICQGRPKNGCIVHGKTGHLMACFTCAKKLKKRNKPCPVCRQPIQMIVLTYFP

IC50: 25 µM
SMILES: c1ccc(C(N=Nc2nc3ccccc3s2)c2ccccn2)cc1 (stereo unspecified) [NSC-333003]
